According to patent publication US6919457B2, “3-(imidazolyl)-2-aminopropanoic acids” (Pfizer, Inc., priority 2002, dated 2005):

Tests used:
[1] = target: T1, TAFIa (Homo sapiens, UniProt Q96IY4); assay: Assay for TAFIa inhibition (Ki determination, FAAL substrate hydrolysis); format: biochemical; details: calculated from IC50 using the Cheng-Prusoff equation, activated human TAFI, 24° C.
T1 sequence (Q96IY4 115-423): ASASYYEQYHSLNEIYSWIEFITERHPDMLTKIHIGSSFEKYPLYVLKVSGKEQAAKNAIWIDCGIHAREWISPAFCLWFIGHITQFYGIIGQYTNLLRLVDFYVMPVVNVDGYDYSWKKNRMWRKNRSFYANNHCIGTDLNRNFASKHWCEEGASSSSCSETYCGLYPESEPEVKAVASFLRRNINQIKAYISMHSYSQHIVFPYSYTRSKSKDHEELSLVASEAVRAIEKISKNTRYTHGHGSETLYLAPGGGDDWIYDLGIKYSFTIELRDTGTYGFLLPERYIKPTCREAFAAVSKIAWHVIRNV
Experimental: The compounds of the present invention may be tested using the following assay, which is based on that disclosed in Boffa et al., J. Biol. Chem. 1998, 273, 2127. The compounds are incubated with activated TAFI and a standard substrate for TAFIa, the rate of hydrolysis of the substrate is determined and compared to the rate of hydrolysis in the absence of the compounds, and the amount of inhibition expressed in terms of Ki.
Human TAFI (recombinant or purified) was activated by incubating 20 μl of stock solution (360 μg/ml) with 10 μl of human thrombin (10 NIH units/ml), 10 μl of rabbit thrombomodulin (30 μg/ml), 6 μl calcium chloride (50 mM) in 50 μL of 20 mM HEPES (N-[2-hydroxyethyl]piperazine-N-[2-ethanesulfonic acid]) buffer containing 150 mM sodium chloride and 0.01% TWEEN 80 (polyoxyethylene-sorbitan monooleate) pH 7.6 for 20 minutes at 22° C. At the end of the incubation period, thrombin was neutralised by the addition of 10 μL of PPACK (D-Phe-Pro-Arg chloromethyl ketone) (100 nM). The resulting TAFIa solution was stored on ice for 5 minutes and finally diluted with 175 μl of HEPES buffer.
ii) Ki Determination (TAFIa)
(§1) A number of different dilutions of the test compound in water were made up. To 20 μl of each dilution was added 150 μl of HEPES buffer and 10 μl of TAFIa, which was then pre-incubated for 15 minutes at 24° C. To each dilution was then added 20 μl furylacryloyl-alanyl-lysine (FAAL) at a standard concentration. Substrate turnover was measured by reading the absorbance of the reaction mixture at 330 nm every 15 seconds for 30 minutes. The reaction was performed at 24° C. and samples were mixed for 3 seconds prior to each absorbance reading.
(§2) A graph of % inhibition against test compound concentration was then plotted; from which was calculated the IC50 value. The Ki value was then calculated using the Cheng-Prusoff equation.
Two controls, positive and negative, were used to check the accuracy of the results in each case. For the first control, the assay was performed as above, but with 20 μl of water rather than a dilution of the test compound. […] For the second control, the assay was performed as above, but with an effective amount of a non specific carboxypeptidase inhibitor rather than a dilution of the test compound.

[2] = target: T2, human CPN (Homo sapiens, UniProt P15169); assay: CPN Ki determination (TAFIa assay with human CPN substituted for TAFIa); format: biochemical; details: for Ki: human CPN substituted for TAFIa, calculated Ki; for Selectivity: selectivity for TAFIa over CPN, comparing Ki for CPN with Ki for TAFIa
T2 sequence (P15169 21-458): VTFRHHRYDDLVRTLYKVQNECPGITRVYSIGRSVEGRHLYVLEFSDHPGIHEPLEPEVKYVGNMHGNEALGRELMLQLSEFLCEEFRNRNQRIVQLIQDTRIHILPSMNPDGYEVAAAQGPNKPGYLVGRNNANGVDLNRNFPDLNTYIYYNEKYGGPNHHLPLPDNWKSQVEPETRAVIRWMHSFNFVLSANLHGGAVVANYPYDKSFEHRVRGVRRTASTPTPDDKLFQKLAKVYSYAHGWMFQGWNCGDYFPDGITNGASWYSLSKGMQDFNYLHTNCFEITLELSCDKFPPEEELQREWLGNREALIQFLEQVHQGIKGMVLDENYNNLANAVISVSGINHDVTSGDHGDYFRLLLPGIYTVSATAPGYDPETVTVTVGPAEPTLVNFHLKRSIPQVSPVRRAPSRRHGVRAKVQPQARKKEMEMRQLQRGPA
T2 sequence (P22792 22-545 partner): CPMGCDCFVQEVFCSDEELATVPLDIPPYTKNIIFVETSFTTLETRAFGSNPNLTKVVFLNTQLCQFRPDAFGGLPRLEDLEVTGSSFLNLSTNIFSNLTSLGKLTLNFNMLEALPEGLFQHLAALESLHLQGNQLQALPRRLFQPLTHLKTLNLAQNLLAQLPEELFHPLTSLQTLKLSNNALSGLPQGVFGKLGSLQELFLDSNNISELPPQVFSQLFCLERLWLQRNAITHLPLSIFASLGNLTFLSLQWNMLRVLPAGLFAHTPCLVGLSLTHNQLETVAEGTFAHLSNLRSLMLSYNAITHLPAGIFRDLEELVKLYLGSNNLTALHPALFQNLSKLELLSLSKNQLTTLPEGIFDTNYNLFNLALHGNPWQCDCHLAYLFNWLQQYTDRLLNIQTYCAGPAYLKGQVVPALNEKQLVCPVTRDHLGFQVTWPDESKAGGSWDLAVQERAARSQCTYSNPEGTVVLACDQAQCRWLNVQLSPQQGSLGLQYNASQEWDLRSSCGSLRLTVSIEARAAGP
Experimental: as §1, §2
The selectivity of the compounds of the present invention for TAFIa over CPN was determined by calculating the Ki of the compounds of the present invention for CPN, then comparing it to the Ki for TAFIa. The Ki was calculated using the assay for the calculation of TAFIa Ki, but substituting 10 μl of human CPN for 10 μl of TAFIa.

Question: With `N[C@H]1CCN([C@@H](Cc2cn(CCc3ccccc3)cn2)C(=O)O)C1` [Example 8, (+)-(2S)-2-[(3S)-3-Aminopyrrolidinyl]-3-[1-(2-phenylethyl)-1H-imidazol-4-yl]propanoic Acid] as the molecule, how does the Ki [1] read?
Answer: 10 nM

Question: For `N[C@H]1CCN([C@@H](Cc2cn(-c3ccccc3)cn2)C(=O)O)C1` [Example 9, (+)-(2S)-2-[(3S)-3-Aminopyrrolidinyl]-3-[1-phenyl-1H-imidazol-4-yl]propanoic Acid], which Ki [1] is on record?
Answer: 8 nM

Question: With `N[C@H]1CCN([C@@H](Cc2c[nH]cn2)C(=O)O)C1` [Example 2, (+)-(2S)-2-[(3S)-3-Aminopyrrolidinyl]-3-(1H-imidazol-4-yl)propanoic Acid] as the molecule, how does the Ki [1] read?
Answer: 60 nM

Question: Which Ki [1] does the source give for `N[C@H]1CCN([C@@H](Cc2cn(CCC3CCCCC3)cn2)C(=O)O)C1` [Example 6, (+)-(2S)-2-[(3S)-3-Aminopyrrolidinyl]-3-[1-(2-cyclohexylethyl)-1H-imidazol-4-yl]propanoic Acid] here?
Answer: 7 nM

Question: What about the Ki [2] of the same molecule?
Answer: > 10000 nM

Question: And the Selectivity [2]?
Answer: >1400

Question: Which results are given for `CCCn1cnc(C[C@@H](C(=O)O)N2CC[C@H](N)C2)c1` [Example 4, (+)-(2S)-2-[(3S)-3-Aminopyrrolidinyl]-3-(1-propyl-1H-imidazol-4-yl)propanoic Acid]?
Answer: Ki [1]: 22 nM; Ki [2]: > 10000 nM; Selectivity [2]: >450
